Here are results for five compounds from US9382226B2, “Aldosterone synthase inhibitors” (Merck Sharp & Dohme Corp., priority 2010, dated 2016).

In one experiment the target is T1, human CYP11B2 (Homo sapiens, UniProt P19099).
T1 construct: expressed in transfected cells; host or cells: V79 cells (clone V79-hCYP11B2-CLE9)
T1 sequence (P19099 25-503): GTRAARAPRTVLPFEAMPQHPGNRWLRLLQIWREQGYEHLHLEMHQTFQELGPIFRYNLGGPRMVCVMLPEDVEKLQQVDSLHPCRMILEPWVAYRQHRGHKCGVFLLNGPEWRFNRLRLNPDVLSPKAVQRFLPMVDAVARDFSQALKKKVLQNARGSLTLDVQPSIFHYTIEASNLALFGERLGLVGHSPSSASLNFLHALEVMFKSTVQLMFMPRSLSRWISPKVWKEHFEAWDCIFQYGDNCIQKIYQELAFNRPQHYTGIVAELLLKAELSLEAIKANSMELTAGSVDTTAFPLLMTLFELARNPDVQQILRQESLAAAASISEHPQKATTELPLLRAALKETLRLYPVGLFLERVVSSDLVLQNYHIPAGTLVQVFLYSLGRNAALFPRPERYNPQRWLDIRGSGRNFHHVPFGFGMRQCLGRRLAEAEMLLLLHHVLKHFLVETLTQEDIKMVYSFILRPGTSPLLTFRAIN
Description: V79-Human-CYP11B2 cell assay (aldosterone formation, HTRF). Format: cell-based. Conditions: V79 cells stably expressing human CYP11B2; substrate 125 nM 11-deoxycorticosterone; 3 hours. As to the method: (§1) Methods for V79-Human-CYP11B2 and V79-Human-CYP11B1 Assays: V79 cell lines stably expressing the either the human CYP11B2 or the human CYP11B1 enzyme were generated using a standard transfection protocol. V79 cells were transfected with plasmids pTriEx3-Hygro-hCyp11B2 or pTriEx3-Hygro-hCyp11B1 using Lipofectamine2000 reagent. V79 cells that stably express the human CYP11B2 or human CYP11B1 enzyme were selected for and maintained in DMEM supplemented with 10% FBS and 400 μg/mL hygromycin for ˜2 weeks. Single cell clones were generated by […] in DMEM supplemented with 10% FBS and 400 μg/mL hygromycin until single colonies were obtained. Clones V79-hCYP11B2-CLE9 and V79-hCYP11B1-8C7, were determined to produce the most aldosterone and cortisol, respectively, and were selected for inhibitor screening. For testing of inhibitors, cells were harvested at 80% confluency with 0.5% Trypsan-EDTA, washed once in PBS, and reconstituted in DMEM 0.1% BSA media at a cell concentration of 400,000 cells/mL. 25 μl of cells were added to a 384 well tissue culture treated plate and mixed with 0.25 μl of inhibitor or DMSO (1% final DMSO concentration) for 1 hour at 37° C., 5% CO2. After pre-incubation with inhibitor, the reaction was initiated by adding 5 μl of substrate (final concentration of 125 nM 11-deoxycorticosterone for the CYP11B2 assay or 250 nM 11-deoxycortisol for the CYP11B1 assay). The reaction was carried out for 3 hours at 37° C., 5% CO2 and was stopped by harvesting the supernatants. The amount of product in the supernatant (aldosterone for CYP11B2 assay and cortisol for the CYP11B1 assay) was measured using HTRF-based assay kit (Aldosterone HTRF-CisBio#64ALDPEB, Cortisol HTRF-CisBio #63IDC002-CORT). IC50's for the inhibitor were determined by plotting the amount of product formed against the concentration of inhibitor using sigmoidal dose-response curve (variable slope) fit in GraphPad.

Another experiment addresses T2, human CYP11B1 (Homo sapiens, UniProt P15538).
T2 construct: expressed in transfected cells; host or cells: V79 cells (clone V79-hCYP11B1-8C7)
T2 sequence (P15538 25-503): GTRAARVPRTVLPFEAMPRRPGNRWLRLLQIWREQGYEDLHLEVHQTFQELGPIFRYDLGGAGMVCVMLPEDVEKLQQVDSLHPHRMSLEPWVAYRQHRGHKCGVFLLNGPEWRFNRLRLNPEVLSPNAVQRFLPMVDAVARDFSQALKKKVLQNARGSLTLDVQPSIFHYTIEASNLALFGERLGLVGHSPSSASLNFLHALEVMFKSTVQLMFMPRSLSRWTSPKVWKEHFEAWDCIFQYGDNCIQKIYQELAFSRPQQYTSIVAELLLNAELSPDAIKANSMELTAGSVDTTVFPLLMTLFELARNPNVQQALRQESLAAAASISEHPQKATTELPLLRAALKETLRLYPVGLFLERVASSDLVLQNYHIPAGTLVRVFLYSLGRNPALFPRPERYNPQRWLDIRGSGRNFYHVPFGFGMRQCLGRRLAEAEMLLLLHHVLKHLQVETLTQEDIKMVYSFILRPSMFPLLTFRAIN
Description: V79-Human-CYP11B1 cell assay (cortisol formation, HTRF). Format: cell-based. Conditions: V79 cells stably expressing human CYP11B1; substrate 250 nM 11-deoxycortisol; 3 hours. As to the method: as §1, with “Clones V79-hCYP11B2-CLE9 and V79-hCYP11B1-8C7, were determined to produce the most aldosterone and cortisol, respectively, and were selected for inhibitor screening.” left out, “After pre-incubation with inhibitor, the reaction was initiated by adding 5 μl of substrate (final concentration of 125 nM 11-deoxycorticosterone for the CYP11B2 assay or 250 nM 11-deoxycortisol for the CYP11B1 assay).” left out
(In general: TR-FRET usually uses a lanthanide donor and a delayed reading to cut background.)

Molecules are shown by their SMILES. pIC50: −log10 of the molar value.

In general, pIC50 refers to −log10 of the IC50, conventionally taken in molar units. A lower pIC50 goes with a high IC50.

`Fc1ccc2nc(-c3cncc4ccccc34)n(C3CC3)c2c1F` [Example 279, 4-(1-cyclopropyl-6,7-difluoro-1H-benzimidazol-2-yl)isoquinoline]: the pIC50 was 9.55 against human CYP11B2 and 6.69 against human CYP11B1.

Take `Cc1cncc(-c2nc3ccc(F)c(F)c3n2C2CC2)c1C` [Example 282, 1-cyclopropyl-2-(4,5-dimethylpyridin-3-yl)-6,7-difluoro-1H-benzimidazole]: the pIC50 against human CYP11B2 was 9.38; at human CYP11B1, 6.53.

For the compound `Cc1ccncc1-c1nc2ccc(F)c(F)c2n1C1CC1` [Example 284, 1-cyclopropyl-6,7-difluoro-2-(4-methylpyridin-3-yl)-1H-benzimidazole], the pIC50 was 8.87 at human CYP11B2 and 6.52 against human CYP11B1.

Consider `Cn1c(-c2cnccc2C(F)(F)F)nc2cc(F)c(Cl)cc21` [Example 335, 6-chloro-5-fluoro-1-methyl-2-[4-(trifluoromethyl)pyridin-3-yl]-1H-benzimidazole], for which the values for the pIC50 against human CYP11B2 and against human CYP11B1 were 8.55 and 6.25, respectively.

Take `Fc1cncc(-c2nc3cc(F)c(F)cc3n2OCc2ccccc2)c1` [Example 373, 1-(benzyloxy)-5,6-difluoro-2-(5-fluoropyridin-3-yl)-1H-benzimidazole]: the pIC50 against human CYP11B2 is 9.30; at human CYP11B1, 7.15.
